Source: patent US9212168B2 (priority 2011, dated 2015)
pEC50: −log10 of the molar value.

Each compound was assayed on HCV genotype 1a replicon (assay: HCV genotype 1a replicon assay (NS3 protease activity readout)). Details: HCV genotype 1a replicon.
Format: cell-based, hepatitis C virus
Protocol: Assay 2: HCV Genotype 1a Replicon Assay
The HCV genotype 1a replicon cell line was obtained from Apath LLC (APC89; Huh7.5 cell background). This subgenomic replicon contains the N-terminus of the HCV core protein fused to the neomycin-resistance selectable marker. The EMCV IRES lies downstream and drives expression of the non-structural proteins NS3-NS5B. Compound potencies were determined using the NS3-specific protease activity in lysates as a measurement of compound inhibition of replicon levels.
Cells were grown at 37° C. in a 5% CO2 humidified incubator in DMEM (Invitrogen) with 10% FBS (HyClone), 1×NEAA (Invitrogen), 1× Pen-Strep (Invitrogen), and 850 μg/mL G418 (Invitrogen). On day 1 of the assay, cells were plated at 15,000 cells/well in black 96-well tissue culture plates (Costar) in 200 μL media lacking G418. Four hours later, once the cells had adhered, the media was removed and replaced with media (no G418) containing dose-responses of test compounds. Compounds were initially diluted in DMSO and then diluted another 200× in media to bring the final DMSO concentration down to 0.5%. The cells were incubated with test compounds for 48 or 72 hours. At the end of the incubation period, media and compound were removed from the plates.
To determine the NS3-specific protease activity in lysates, the cells were lysed at room temperature in 50 μL/well of 50 mM Hepes pH 7.5, 150 mM NaCl, 15% Glycerol, 0.15% Triton X-100, 10 mM DTT for 20 minutes with shaking. 50 μL of an NS3/4a protease-specific FRET substrate (Anaspec RET S1 Cat#22991) was then added to the wells at a final concentration of 15 μM. The plates were incubated at 37° C. for 20 minutes, which corresponds to a timepoint at which the protease activity is still in the linear phase. Protease activity was determined by measuring fluorescence (Excitation: 340 nm; Emission: 509 nm).
To analyze the data, the fluorescence was plotted vs. the compound concentration, and EC50 values were determined from a 4-parameter robust fit model using GraphPad Prism software.

Compound	Genotype 1a
COC(=O)N[C@H](C(=O)N1C[C@@H](C)C[C@H]1c1nc(-c2ccc(-c3cc(F)c(NC(=O)c4ccc(N5CCN(C(=O)C6CC67CC7)C[C@H]5C)nc4)cc3Cl)cc2)c[nH]1)C(C)C (stereo partly shown) [Example 1-84]	C (C represents pEC50 between and 9 and about 10, (EC50 between 1 nM and 0.1 nM))
COC(=O)N[C@H](C(=O)N1C[C@@H](C)C[C@H]1c1nc(-c2ccc(-c3cc(Cl)c(NC(=O)c4ccc(N5CCN(C(=O)[C@H]6CCCN6C(=O)C6CC6)C[C@H]5C)nc4)cc3OC(F)(F)F)cc2)c[nH]1)C(C)C [Example 1-51]	D (D represents pEC50>10 (EC50<0.1 nM))
COC(=O)N[C@H](C(=O)N1C[C@@H](C)C[C@H]1c1nc(-c2ccc(-c3cc(Cl)c(NC(=O)c4ccc(N5CCN(C(=O)[C@H]6CCCN6C(=O)C(C)C)C[C@H]5C)nc4)cc3OC(F)(F)F)cc2)c[nH]1)C(C)C [Example 1-49]	D (D represents pEC50>10 (EC50<0.1 nM))
COC(=O)N[C@H](C(=O)N1C[C@@H](C)C[C@H]1c1nc(-c2ccc(-c3cc(Cl)c(NC(=O)c4ccc(N5CCN(C(=O)NC(C)C)C[C@H]5C)nc4)cc3OC(F)(F)F)cc2)c[nH]1)C(C)C [Example 1-72]	D (D represents pEC50>10 (EC50<0.1 nM))
COC(=O)N[C@H](C(=O)N1C[C@@H](C)C[C@H]1c1nc(-c2ccc(-c3cc(F)c(C(=O)Nc4ccc(N5CCN(C(=O)C(C)(C)C)C[C@H]5C)nc4)cc3OC(F)(F)F)cc2)c[nH]1)C(C)C [Example 4-41]	C (C represents pEC50 between and 9 and about 10, (EC50 between 1 nM and 0.1 nM))
CCCCC(=O)N1CCN(c2ccc(C(=O)Nc3cc(OC(F)(F)F)c(-c4ccc(-c5c[nH]c([C@@H]6C[C@H](C)CN6C(=O)[C@@H](NC(=O)OC)C(C)C)n5)cc4)cc3Cl)cn2)[C@H](C)C1 [Example 1-71]	C (C represents pEC50 between and 9 and about 10, (EC50 between 1 nM and 0.1 nM))
COC(=O)N[C@H](C(=O)N1C[C@@H](C)C[C@H]1c1nc(-c2ccc(-c3ccc(C(=O)Nc4ccc(N5C[C@H](C)N(C(=O)NC6CC6)C[C@H]5C)nc4)cc3OC(F)(F)F)cc2)c[nH]1)C(C)C [Example 4-24]	C (C represents pEC50 between and 9 and about 10, (EC50 between 1 nM and 0.1 nM))
COC(=O)N[C@H](C(=O)N1C[C@@H](C)C[C@H]1c1nc(-c2ccc(-c3cc(Cl)c(NC(=O)c4ccc(N5CCN(C(=O)C6CC6)C[C@H]5C)nc4)cc3OC(F)(F)F)cc2)c[nH]1)C(C)C [Example 1-42]	D (D represents pEC50>10 (EC50<0.1 nM))
COC(=O)NC(C(=O)N1CC(OC)CC1c1nc(-c2ccc(-c3cc(Cl)c(NC(=O)c4ccc(N5CCN(C(=O)C(C)(C)CO)CC5C)nc4)cc3OC(F)(F)F)cc2)c[nH]1)C(C)OC (stereo not shown) [Example 16-8]	D (D represents pEC50>10 (EC50<0.1 nM))
COC(=O)N[C@H](C(=O)N1C[C@@H](C)C[C@H]1c1nc(-c2ccc(-c3ccc(C(=O)Nc4ccc(N5CCN(C(=O)[C@H]6CC6(C)C)C[C@H]5C)nc4)cc3OC(F)(F)F)cc2)c(Cl)[nH]1)C(C)C [Example 4-29]	D (D represents pEC50>10 (EC50<0.1 nM))
COC(=O)N[C@H](C(=O)N1C[C@@H](OC)C[C@H]1c1nc(-c2ccc(-c3cc(Cl)c(NC(=O)c4ccc(N5C[C@H](C)N(C(=O)NC(C)(C)C)C[C@H]5C)nc4)cc3OC(F)(F)F)cc2)c[nH]1)C1CCOCC1 [Example 28-9]	D (D represents pEC50>10 (EC50<0.1 nM))
COC(=O)N[C@H](C(=O)N1C[C@@H](C)C[C@H]1c1nc(-c2ccc(-c3cc(Cl)c(NC(=O)c4ccc(N5C[C@H](C)N(C(=O)[C@H]6CCCN6S(C)(=O)=O)C[C@H]5C)nc4)cc3OC(F)(F)F)cc2)c[nH]1)C(C)C [Example 1-45]	D (D represents pEC50>10 (EC50<0.1 nM))
COC(=O)N[C@H](C(=O)N1C[C@@H](C)C[C@H]1c1nc(-c2ccc(-c3ccc(C(=O)Nc4ccc(N5CCN(C(=O)C6CC6(Cl)Cl)C[C@H]5C)nc4)cc3OC(F)(F)F)cc2)c[nH]1)C(C)C (stereo partly shown) [Example 4-32]	C (C represents pEC50 between and 9 and about 10, (EC50 between 1 nM and 0.1 nM))
CNC(=O)N1CCN(c2ccc(NC(=O)c3ccc(-c4ccc(-c5c[nH]c([C@@H]6C[C@H](C)CN6C(=O)[C@@H](NC(=O)OC)C(C)C)n5)cc4)c(OC(F)(F)F)c3)cn2)[C@H](C)C1 [Example 4-34]	C (C represents pEC50 between and 9 and about 10, (EC50 between 1 nM and 0.1 nM))
COC(=O)N[C@H](C(=O)N1C[C@@H](C)C[C@H]1c1nc(-c2ccc(-c3cc(F)c(NC(=O)c4ccc(N5CCN(C(=O)[C@H]6CC6(C)C)C[C@H]5C)nc4)cc3Cl)cc2)c[nH]1)C(C)C [Example 1-76]	D (D represents pEC50>10 (EC50<0.1 nM))
CCCCOC(=O)N[C@H](C(=O)N1C[C@@H](C)C[C@H]1c1nc(-c2ccc(-c3cc(Cl)c(NC(=O)c4ccc(N5C[C@H](C)N(C(=O)NC)C[C@H]5C)nc4)cc3OC(F)(F)F)cc2)c[nH]1)C(C)C [Example 7-4]	B (B represents pEC50 between 8 and 9 (EC50 between 1 and 10 nM))
COC(=O)N[C@H](C(=O)N1C[C@@H](C)C[C@H]1c1nc(-c2ccc(-c3ccc(C(=O)Nc4ccc(N5C[C@H](C)N(C(=O)C6CC6(Cl)Cl)C[C@H]5C)nc4)cc3OC(F)(F)F)cc2)c[nH]1)C(C)C (stereo partly shown) [Example 4-23]	C (C represents pEC50 between and 9 and about 10, (EC50 between 1 nM and 0.1 nM))
COC(=O)NC(C(=O)N1CC(C)CC1c1nc(-c2ccc(-c3cc(F)c(NC(=O)c4ccc(N5CCN(C(=O)C6CC6(F)Cl)CC5C)nc4)cc3OC(F)(F)F)cc2)c[nH]1)C(C)C (mixture of isomers) [Example 1-60]	D (D represents pEC50>10 (EC50<0.1 nM))
COC(=O)N[C@H](C(=O)N1C[C@@H](C)C[C@H]1c1nc(-c2ccc(-c3ccc(C(=O)Nc4ccc(N5CCN(C(=O)C(C)(C)C)C[C@H]5C)nc4)cc3OC(F)F)cc2)c[nH]1)C1CCOCC1 [Example 25-5]	D (D represents pEC50>10 (EC50<0.1 nM))
COC(=O)N[C@H](C(=O)N1C[C@@H](C)C[C@H]1c1nc(-c2ccc(-c3cc(F)c(NC(=O)c4ccc(N5CCN(C(=O)C6CC67CC7)C[C@H]5C)nc4)cc3OC(F)(F)F)cc2)c[nH]1)C(C)C (stereo partly shown) [Example 1-88]	D (D represents pEC50>10 (EC50<0.1 nM))

Same assay, conditions: Hepatitis C virus, read-out: Genotype 1a, HCV genotype 1a replicon

Compound	pEC50
COC(=O)NC(C(=O)N1C[C@@H](C)C[C@H]1c1nc(-c2ccc(-c3ccc(C(=O)Nc4ccc(N5CCN(C(=O)C(C)(C)C)C[C@H]5C)nc4)c(Cl)c3OC(F)(F)F)cc2)c[nH]1)C1CCOCC1 (stereo partly shown) [Example 25-3]	9.00 to 10.00
COC(=O)NC(C(=O)N1C[C@@H](C)C[C@H]1c1nc(-c2ccc(-c3ccc(C(=O)Nc4ccc(N5CCN(C(=O)C(C)(C)C)C[C@H]5C)nc4)c(F)c3OC(F)(F)F)cc2)c[nH]1)C(C)C (stereo partly shown) [Example 25-1]	9.00 to 10.00
COC(=O)N[C@H](C(=O)N1C[C@@H](C)C[C@H]1c1nc(-c2ccc(-c3cc(Cl)c(NC(=O)c4ccc(N5CCN(C(=O)C(C)(C)C)C[C@H]5C)nc4)cc3OC(F)(F)F)cc2)c[nH]1)C1CCCC1 [Example 13-41]	> 10.00
COC(=O)N[C@H](C(=O)N1C[C@@H](C)C[C@H]1c1nc(-c2ccc(-c3cc(Cl)c(NC(=O)c4ccc(N5CCN(C(=O)C(C)(C)CN)C[C@H]5C)nc4)cc3OC(F)(F)F)cc2)c[nH]1)C(C)C [Example 12-36]	6.00 to 8.00
COC(=O)NC(C(=O)N1C[C@@H](C)C[C@H]1c1nc(-c2ccc(-c3cc(Cl)c(NC(=O)c4ccc(N5CCN(C(=O)C(C)(C)C)C[C@H]5C)nc4)cc3OC(F)(F)F)cc2)c[nH]1)C1COC1 (stereo partly shown) [Example 13-44]	9.00 to 10.00
COCC(=O)N1CCC[C@@]1(C)C(=O)N1CCN(c2ccc(NC(=O)c3ccc(-c4ccc(-c5c[nH]c([C@@H]6CC(C)(C)CN6C(=O)[C@@H](NC(=O)OC)C(C)C)n5)cc4)c(OC(F)(F)F)c3)cn2)[C@H](C)C1 [Example 6-7]	> 10.00
COC(=O)N[C@H](C(=O)N1CC(C)(C)C[C@H]1c1nc(-c2ccc(-c3ccc(C(=O)Nc4ccc(N5CCN(C(=O)C(C)(C)C)C[C@H]5C)nc4)cc3OC(F)(F)F)cc2)c[nH]1)C(C)C [Example 6-23]	8.00 to 9.00
COC(=O)N[C@H](C(=O)N1CC(C)(C)C[C@H]1c1nc(-c2ccc(-c3ccc(C(=O)Nc4ccc(N5CCN(C(=O)[C@]6(C)CCCN6C(=O)[C@@H](NC(=O)OC)C(C)C)C[C@H]5C)nc4)cc3OC(F)(F)F)cc2)c[nH]1)C(C)C [Example 6-6]	9.00 to 10.00
COC(=O)NC(C(=O)N1C[C@@H](C)C[C@H]1c1nc(-c2ccc(-c3cc(Cl)c(NC(=O)c4ccc(N5CCN(C(=O)C(C)(C)C)C[C@H]5C)nc4)cc3OC(F)(F)F)cc2)c[nH]1)C1CCS(=O)(=O)CC1 (stereo partly shown) [Example 13-36]	8.00 to 9.00
COC(=O)N[C@H](C(=O)N1C[C@H](OC)C[C@H]1c1nc(-c2ccc(-c3cc(Cl)c(NC(=O)c4ccc(N5CCN(C(=O)C(C)(C)C)C[C@H]5C)nc4)cc3OC(F)(F)F)cc2)c[nH]1)C1CCOCC1 [Example 5-20]	> 10.00
COC(=O)NC(C(=O)N1C[C@@H](C)C[C@H]1c1nc(-c2ccc(-c3ccc(C(=O)Nc4ccc(N5CCN(C(=O)C(C)(C)C)C[C@H]5C)nc4)c(Cl)c3OC(F)(F)F)cc2)c[nH]1)C(C)C (stereo partly shown) [Example 25-4]	9.00 to 10.00
